Data on 31 compounds can be found in patent US20150087673A1, “METHODS FOR USING AND BIOMARKERS FOR AMPK-ACTIVATING COMPOUNDS” (RIGEL PHARMACEUTICALS, INC., priority 2013, published 2015).

The term EC50 denotes the concentration giving half of the maximal effect.

Each structure is given as a SMILES string.

This test deals with AMPK. In words: AMPK activation assay (enzyme-linked immunosorbent assay). The test is classed as cell-based. A digest of the protocol: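 Kit-based immunoassay; compounds screened as activators; standard reagents and protocol.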
Take `O=C(Nc1ccc(Oc2ccc(F)cc2)nc1)c1ccc(C(=O)N2CCC(Oc3ccc(C(=O)C4CC4)cc3)CC2)nc1` [Compound 457, 6-(4-(4-(cyclopropanecarbonyl)phenoxy)piperidine-1-carbonyl)-N-(6-(4-fluorophenoxy)pyridin-3-yl)nicotinamide]: the concentration giving a half-maximal response (EC50) was < 500 nM. With `N#Cc1ccc(CN2CCC(NC(=O)c3ccc(C(=O)N4CCC(Oc5ccc(S(F)(F)(F)(F)F)cc5)CC4)cn3)CC2)cc1` [Compound 492, N-(1-(4-cyanobenzyl)piperidin-4-yl)-5-(4-(4-(pentafluorosulfanyl)phenoxy)piperidine-1-carbonyl)picolinamide] the figure was < 500 nM. Regarding `N#Cc1ccc(CN2CCC(NC(=O)c3ccc(C(=O)N4CCCCC4Cc4ccc(F)cc4)cn3)CC2)cc1` (stereo not shown) [Compound 153, N-(1-(4-cyanobenzyl)piperidin-4-yl)-5-(2-(4-fluorobenzyl)piperidine-1-carbonyl)picolinamide], the half-maximal effective concentration (EC50) was in the range of 1000 to 5000 nM. `O=C(NC1CCN(c2ccc(F)cc2)CC1)c1ccc(C(=O)N2CCN(Cc3ccc(F)cc3)CC2)nc1` [Compound 404, 6-(4-(4-fluorobenzyl)piperazine-1-carbonyl)-N-(1-(4-fluorophenyl)piperidin-4-yl)nicotinamide] had an EC50 of 1000 to 5000 nM.

On to `CS(=O)(=O)c1ccc(OC2CCN(C(=O)c3ccc(C(=O)NC4CCN(Cc5cccc(OC(F)(F)F)c5)CC4)cn3)CC2)cc1` [Compound 239, 6-(4-(4-(methylsulfonyl)phenoxy)piperidine-1-carbonyl)-N-(1-(3-(trifluoromethoxy)benzyl)piperidin-4-yl)nicotinamide], for which the concentration for a half-maximal effect (EC50) is 1000 to 5000 nM. Under `O=C(NC1CCN(Cc2ccccc2)CC1)c1ccc(C(=O)N2CCN(c3ccncc3)CC2)cn1` [Compound 96, N-(1-benzylpiperidin-4-yl)-5-(4-(pyridin-4-yl)piperazine-1-carbonyl)picolinamide] stands > 10000 nM; under `COc1ccc(OC2CCN(C(=O)c3ccc(C(=O)NC4CCN(Cc5ccc(N6CCCC6)cc5)CC4)nc3)CC2)cc1` [Compound 195, 5-(4-(4-methoxyphenoxy)piperidine-1-carbonyl)-N-(1-(4-(pyrrolidin-1-yl)benzyl)piperidin-4-yl)picolinamide], < 500 nM. With `N#Cc1ccc(CN2CCC3(CCN(C(=O)c4ccc(C(=O)N5CCN(Cc6ccc(F)cc6)CC5)cn4)CC3)C2)cc1` [Compound 15, 4-((8-(5-(4-(4-fluorobenzyl)piperazine-1-carbonyl)picolinoyl)-2,8-diazaspiro[4.5]decan-2-yl)methyl)benzonitrile] the figure was 1000 to 5000 nM; with `CS(=O)(=O)c1ccc(OC2CCN(C(=O)c3ccc(C(=O)Nc4ccc(Oc5ccc(C#N)cc5)nc4)cn3)CC2)cc1` [Compound 459, N-(6-(4-cyanophenoxy)pyridin-3-yl)-6-(4-(4-(methylsulfonyl)phenoxy)piperidine-1-carbonyl)nicotinamide], < 500 nM; with `N#Cc1ccc(-c2nnc3n2CCN(C(=O)c2ccc(C(=O)NC4CCN(Cc5cc(F)cc(F)c5)CC4)nc2)C3)cc1` [Compound 314, 5-(3-(4-cyanophenyl)-5,6,7,8-tetrahydro-[1,2,4]triazolo[4,3-a]pyrazine-7-carbonyl)-N-(1-(3,5-difluorobenzyl)piperidin-4-yl)picolinamide], > 10000 nM.

As to `COc1ccc(CN2CCC(NC(=O)c3ccc(C(=O)N4CCC(C(=O)c5ccc(F)cc5F)CC4)nc3)CC2)cc1` [Compound 347, 6-(4-(2,4-difluorobenzoyl)piperidine-1-carbonyl)-N-(1-(4-methoxybenzyl)piperidin-4-yl)nicotinamide], the EC50 was < 500 nM.

As to `CS(=O)(=O)c1ccc(OC2CCN(C(=O)c3ccc(C(=O)Nc4ccc(S(=O)(=O)c5ccc(F)cc5)nc4)nc3)CC2)cc1` [Compound 261, N-(6-(4-fluorophenylsulfonyl)pyridin-3-yl)-5-(4-(4-(methylsulfonyl)phenoxy)piperidine-1-carbonyl)picolinamide], the EC50 was < 500 nM. As to `COc1ccc(CN2CCC(NC(=O)c3ccc(C(=O)N4CCC(Oc5ccc(S(C)(=O)=O)cc5)CC4)cn3)CC2)cc1` [Compound 202, N-(1-(4-methoxybenzyl)piperidin-4-yl)-5-(4-(4-(methylsulfonyl)phenoxy)piperidine-1-carbonyl)picolinamide], the EC50 is < 500 nM. With `O=C(NC1CCN(Cc2cc(F)cc(F)c2)CC1)c1ccc(C(=O)N2CCC(C(=O)c3ccc(F)cc3)CC2)cn1` [Compound 288, N-(1-(3,5-difluorobenzyl)piperidin-4-yl)-5-(4-(4-fluorobenzoyl)piperidine-1-carbonyl)picolinamide] the figure was < 500 nM; with `N#Cc1ccc(CN2CCC(NC(=O)c3ccc(C(=O)N4CCC(Oc5cccc(C#N)c5)CC4)cn3)CC2)cc1` [Compound 155, N-(1-(4-cyanobenzyl)piperidin-4-yl)-5-(4-(3-cyanophenoxy)piperidine-1-carbonyl)picolinamide], < 500 nM; with `N#Cc1ccc(CN2CCC(NC(=O)c3ccc(N4CCCC(Oc5ccc(C#N)cc5)C4)cn3)CC2)cc1` (stereo not shown) [Compound 265, N-(1-(4-cyanobenzyl)piperidin-4-yl)-5-(3-(4-cyanophenoxy)piperidin-1-yl)picolinamide], 1000 to 5000 nM.

As for `O=C(Nc1ccc(Oc2ccc(F)cc2)nc1)c1ccc(C(=O)N2CCC(C(=O)c3ccc(F)cc3F)CC2)cn1` [Compound 342, 5-(4-(2,4-difluorobenzoyl)piperidine-1-carbonyl)-N-(6-(4-fluorophenoxy)pyridin-3-yl)picolinamide], the concentration giving a half-maximal response (EC50) was < 500 nM. As for `O=C(NC1CCN(Cc2ccc(F)cc2)CC1)c1ccc(C(=O)N2CCC(C(=O)c3ccc(-n4cccn4)cc3)CC2)nc1` [Compound 392, 6-(4-(4-(1H-pyrazol-1-yl)benzoyl)piperidine-1-carbonyl)-N-(1-(4-fluorobenzyl)piperidin-4-yl)nicotinamide], the EC50 was < 500 nM.

For the compound `N#Cc1ccc(CN2CCC(NC(=O)c3ccc(C(=O)N4CCN(C5CCOCC5)CC4)cn3)CC2)cc1` [Compound 83, N-(1-(4-cyanobenzyl)piperidin-4-yl)-5-(4-(tetrahydro-2H-pyran-4-yl)piperazine-1-carbonyl)picolinamide], the concentration giving a half-maximal response (EC50) was > 10000 nM. Consider `O=C(c1ccc(Nc2ccc(-c3ccccc3)cc2)nc1)N1CCN(Cc2ccc(F)cc2)CC1` [Compound 37, (6-(4-phenylphenylamino)pyridin-3-yl)(4-(4-fluorobenzyl)piperazin-1-yl)methanone], for which the 50% effective concentration (EC50) lay in the range of 5000 to 10000 nM. For the compound `N#Cc1ccc(CN2CC[C@@H](NC(=O)c3ccc(C(=O)N4CCC(Oc5ccc(S(=O)(=O)C(F)(F)F)cc5)CC4)nc3)[C@H](F)C2)cc1` (relative stereo) [Compound 451, N-((trans)-1-(4-cyanobenzyl)-3-fluoropiperidin-4-yl)-6-(4-(4-(trifluoromethylsulfonyl)phenoxy)piperidine-1-carbonyl)nicotinamide], the 50% effective concentration (EC50) is < 500 nM. With `O=C(NC1CCN(Cc2cc(F)cc(F)c2)CC1)c1ccc(C(=O)N2CCC(Oc3ccc(F)c(F)c3)CC2)cn1` [Compound 297, N-(1-(3,5-difluorobenzyl)piperidin-4-yl)-5-(4-(3,4-difluorophenoxy)piperidine-1-carbonyl)picolinamide] the figure was < 500 nM; with `COc1ccc(CN2CCC(NC(=O)c3ccc(C(=O)N4CCC(Oc5ccc(S(F)(F)(F)(F)F)cc5)CC4)nc3)CC2)cc1` [Compound 495, N-(1-(4-methoxybenzyl)piperidin-4-yl)-6-(4-(4-(pentafluorosulfanyl)phenoxy)piperidine-1-carbonyl)nicotinamide], < 500 nM. Take `N#Cc1ccc(OC2CCN(C(=O)c3ccc(C(=O)N[C@H]4CC[C@@H](Oc5ccc(F)cc5)CC4)cn3)CC2)cc1` [Compound 324, 6-(4-(4-cyanophenoxy)piperidine-1-carbonyl)-N-((cis)-4-(4-fluorophenoxy)cyclohexyl)nicotinamide]: the EC50 is < 500 nM. With `CS(=O)(=O)c1ccc(C(=O)C2CCN(C(=O)c3ccc(C(=O)Nc4ccc(Oc5ccc(F)cc5)nc4)cn3)CC2)cc1` [Compound 224, N-(6-(4-fluorophenoxy)pyridin-3-yl)-6-(4-(4-(methylsulfonyl)benzoyl)piperidine-1-carbonyl)nicotinamide] the figure was < 500 nM; with `COc1ccc(CN2CCC(NC(=O)c3ccc(C(=O)N4CCN(Cc5ccc(F)cc5)CC4)cn3)CC2)cc1` [Compound 117, 5-(4-(4-fluorobenzyl)piperazine-1-carbonyl)-N-(1-(4-methoxybenzyl)piperidin-4-yl)picolinamide], < 500 nM; with `N#Cc1ccc(CN2CCC(NC(=O)c3ccc(C(=O)Nc4cnn(Cc5ccc(C#N)cc5)c4)cn3)CC2)cc1` [Compound 43, N^5-(1-(4-cyanobenzyl)-1H-pyrazol-4-yl)-N^2-(1-(4-cyanobenzyl)piperidin-4-yl)pyridine-2,5-dicarboxamide], 1000 to 5000 nM. For the compound `COc1ccc(OC2CCN(C(=O)c3ccc(C(=O)NC4CCN(Cc5ccc(C#N)cc5)CC4)cn3)CC2)c(N)c1` [Compound 384, 6-(4-(2-amino-4-methoxyphenoxy)piperidine-1-carbonyl)-N-(1-(4-cyanobenzyl)piperidin-4-yl)nicotinamide], the concentration giving a half-maximal response (EC50) is 500 to 1000 nM. For `N#Cc1ccc(CN2CCC(NC(=O)c3ccc(C(=O)N4CCC(C(=O)c5ccc(Cl)cc5)CC4)cn3)CC2)cc1` [Compound 154, 5-(4-(4-chlorobenzoyl)piperidine-1-carbonyl)-N-(1-(4-cyanobenzyl)piperidin-4-yl)picolinamide], the EC50 is < 500 nM. For `CS(=O)(=O)c1ccc(CN2CCC(NC(=O)c3ccc(C(=O)N4CCC(C(=O)c5ccc(F)cc5F)CC4)nc3)CC2)cc1` [Compound 213, 6-(4-(2,4-difluorobenzoyl)piperidine-1-carbonyl)-N-(1-(4-(methylsulfonyl)benzyl)piperidin-4-yl)nicotinamide], the concentration for a half-maximal effect (EC50) was < 500 nM. For `N#Cc1ccc(Oc2ccc(NC(=O)c3ccc(C(=O)N4CCC(C(=O)c5ccc(F)cc5F)CC4)nc3)cn2)cc1` [Compound 463, N-(6-(4-cyanophenoxy)pyridin-3-yl)-6-(4-(2,4-difluorobenzoyl)piperidine-1-carbonyl)nicotinamide], the EC50 was < 500 nM.
